Test results published in US5698547A, “Cephalosporin antibiotics” (Microcide Pharmaceuticals, Inc., priority 1995, dated 1997).
Values after ≈ are worked out from the molar mass of the structure shown. Where a name gives a salt, the structure may show the parent alone. Read-outs that look alike come from different tables or passages of the source.

How the values were obtained:
[1] = tested on: S. aureus Col8A (Meth^S) (lac^-); assay: MIC by agar dilution, S. aureus Col8A (Meth^S) (lac^-); assay type: cell-based; details: for MIC: Staphylococcus aureus, agar dilution, S. aureus Col8A (Meth^S) (lac^-), read-out: MIC
Description: (§1) The compounds of the invention were evaluated against several β-lactamresistant bacteria strains by determining the minimum inhibitory concentration (MIC, μg/ml) of each compound with respect to each strain. The MIC, the lowest concentration of antibiotic which inhibits growth of the test organism, was determined by the agar dilution method.
(§2) To determine the MIC for bacterial isolates, the test compound was incorporated in a series of two-fold dilutions into liquified Mueller-Hinton agar. Upon solidification, a number of different bacterial strains were spot inoculated with a replicating device onto the agar surface. […] The procedures used in these studies have been standardized by the National Committee for Clinical Laboratory Standards (NCCLS), as per the NCCLS publication entitled METHODS FOR DILUTION ANTIMICROBIAL SUSCEPTIBILITY TESTS (1991), which is incorporated herein by reference.
(§3) Aliquots of antimicrobial agents were prepared in phosphate buffered saline (PBS) at pH 7.2. Tween 20 or DMSO was used as a solubilizing vehicle as needed. Standard methods of vortexing, sonicating and gentle heat were used to facilitate solubilizing the test agent. Typically, the concentration of the stock solution was 10× that of the highest drug concentration tested. A 1.28 mg/mL stock solution was used with a subsequent highest working concentration of 128 μg/mL. Serial two-fold dilutions were done through ≤0.25 μg/mL. Each drug level was tested in duplicate. Two-fold drug dilutions were done in sterile 50 mL tubes with a final drug volume of 5 mL. Upon the addition of 45 mL of molten agar, a 10-fold dilution resulted. Two, 25 mL. plates were then poured into 15×150 mm square Petri plates with grids and allowed to harden.
(§4) A control plate with a reference drug, either cefotaxime, vancomycin or imipenem, was used as the positive growth control. Stock concentrations of reference antibiotics were prepared and frozen at -80° C. Upon preparation, the control plates were sealed and stored in the refrigerator for up to 1 week prior to use; however, imipenem control plates had to be prepared just prior to use. All test plates were used within 24 hours of preparation.
(§5) Satisfactory results were obtained where the inoculum contained about 10^4 colony forming units (cfu) ±0.5 logs. Starting with pure cultures of the test isolates on agar plates, a few isolated colonies were transferred to a tube of nutrient broth and allowed to grow 4-6 hours at 35°-36° C. to reach log-phase growth. Dropwise addition of the broth culture to PBS was done to match a 0.5 McFarland turbidity standard equal to 10^8 cfu/mL. This was further diluted ten-fold in PBS to reach a working inoculum concentration of 10^7 cfu/mL. When 1 μL of the working inoculum was applied to the agar surface a concentration of about 10^4 cfu per spot was obtained.
(§6) Disposable sterile 1 μL loops were used to inoculate test plates, with each isolate in a designated grid on the agar plate. An alternate method of inoculation involved the use of a replica plater, a device with 48 steel pins allowing the simultaneous inoculation of multiple isolates. After the spots had dried, the plates were incubated at 35°-36° C. for 16-20 hours. Endpoints were assessed as the minimum inhibitory concentration (MIC) of antimicrobial agent.
The novel agents of this invention are notable for their enhanced activity against S. aureus Col and Enterococci (E. faecium and E. faecalis). The S. aureus Col strain is a high-level PBP2a producer, whereas S. aureus Col 8A, its isogenic partner, lacks PBP2a. […] Thus, the compounds of the present invention are effective against PBP2a-producing bacteria.

[2] = tested on: S. aureus Col (Meth^R) (lac^-); assay: MIC by agar dilution, S. aureus Col (Meth^R) (lac^-); assay type: cell-based; details: for MIC: Staphylococcus aureus, agar dilution, S. aureus Col (Meth^R) (lac^-), read-out: MIC; for activity against S. aureus Col: in words, PBP2a producer
Summary of the method: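 Agar dilution per NCCLS (1991): two-fold dilutions from 128 μg/mL down to ≤0.25 μg/mL in Mueller-Hinton agar, each level in duplicate. Spots of about 10^4 cfu of log-phase culture; 16-20 h at 35°-36° C. MIC in μg/ml is the lowest concentration inhibiting growth.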

[3] = tested on: Enterococci (E. faecium and E. faecalis); assay: In vitro antibacterial evaluation, Enterococci; assay type: cell-based; details: in words
Description: as §1, §2, §3
A control plate with a reference drug, either cefotaxime, vancomycin or imipenem, was used as the positive growth control. […]
Disposable sterile 1 μL loops were used to inoculate test plates, with each isolate in a designated grid on the agar plate. […] Endpoints were assessed as the minimum inhibitory concentration (MIC) of antimicrobial agent.

S. aureus ATCC 29213 = assay: MIC by agar dilution, S. aureus ATCC 29213; assay type: cell-based; details: Staphylococcus aureus, ATCC29213
Description: as §1, §2, §3, §4, §5, §6

[4] = tested on: methicillin-susceptible S. aureus strain ATCC 13709; assay: murine model for lethal bacteremic peritonitis; assay type: in vivo, female Swiss-Webster mice; details: subcutaneous, 72 h; for ED50: Staphylococcus aureus, ATCC13709, sc, two equal doses, S. aureus ATCC 13709 IP challenge, read-out: ED50
Summary of the method: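 Female Swiss-Webster mice challenged IP with an LD100 titer of bacteria in 7% hog gastric mucin; groups of 10 treated SC with twofold drug increments (0.01–512 mg/kg) as two equal doses at challenge and 2 h later. Survival followed for 72 h; PD50 (total mg/kg) calculated by probit method.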

P. aeruginosa ATCC 27853 = assay: MIC by agar dilution, P. aeruginosa ATCC 27853; assay type: cell-based; details: Pseudomonas aeruginosa, ATCC27853, read-out: MIC
Description: as §1, §2, §3, §4, §5, §6

[5] = tested on: S. aureus 76 (Meth^R) (lac^+); assay: MIC by agar dilution, S. aureus 76 (Meth^R) (lac^+); assay type: cell-based; details: Staphylococcus aureus, read-out: MIC
Description: as §1, §2, §3, §4, §5, §6

E. coli ATCC 25922 = assay: MIC by agar dilution, E. coli ATCC 25922; assay type: cell-based; details: Escherichia coli, ATCC25922, read-out: MIC
Description: as §1, §2, §3, §4, §5, §6

S. haemolyticus (Meth^R) = assay: MIC by agar dilution, S. haemolyticus (Meth^R); assay type: cell-based; details: Staphylococcus haemolyticus, read-out: MIC
Description: as §1, §2, §3, §4, §5, §6

E. faecium ATCC 35667 = assay: MIC by agar dilution, E. faecium ATCC 35667; assay type: cell-based; details: Enterococcus faecium, ATCC35667, read-out: MIC
Description: as §1, §2, §3, §4, §5, §6

E. faecalis ATCC 29212 = assay: MIC by agar dilution, E. faecalis ATCC 29212; assay type: cell-based; details: Enterococcus faecalis, ATCC29212, read-out: MIC
Description: as §1, §2, §3, §4, §5, §6

[6] = agar dilution, S. aureus ATCC 29213, read-out: MIC

| Compound | MIC [2] [µg/mL] | MIC (S. aureus ATCC 29213; [6]) [µg/mL] | MIC [1] [µg/mL] | Mortality ([4]; dose 0.625 mg/kg) | Mortality ([4]; dose 1.25 mg/kg) | Mortality ([4]; dose 2.5 mg/kg) | ED50 [4] [mg/kg] | Mortality ([4]; dose 0.1562 mg/kg) | Mortality ([4]; dose 0.3125 mg/kg) | MIC (P. aeruginosa ATCC 27853) [µg/mL] | MIC [5] [µg/mL] | MIC (E. coli ATCC 25922) [µg/mL] | MIC (S. haemolyticus (Meth^R)) [µg/mL] | MIC (E. faecium ATCC 35667) [µg/mL] | MIC (E. faecalis ATCC 29212) [µg/mL] | also measured |
| --- | --- | --- | --- | --- | --- | --- | --- | --- | --- | --- | --- | --- | --- | --- | --- | --- |
| O=C(Cc1ccccc1)N[C@@H]1C(=O)N2C(C(=O)O)=C(Sc3ccccc3-c3ccccc3)CS[C@H]12 [Cmpd 9, (7R)-7-[(Phenylacetyl)amino]-3-(2-biphenylthio)-3-cephem-4-carboxylic acid] | 4 (≈ 7.96 µM) |  |  |  |  |  |  |  |  |  |  |  |  |  |  | activity against S. aureus Col 8A ([1]; in words, lacks PBP2a): broad activity; activity against S. aureus Col [2]: broad activity; activity against Enterococci [3]: broad activity |
| O=C(Cc1ccccc1)N[C@@H]1C(=O)N2C(C(=O)O)=C(SCc3ccc(-c4ccccc4)cc3)CS[C@H]12 [Cmpd 12, (7R)-7-[(Phenylacetyl)amino]-3-(4-biphenylmethylthio)-3-cephem-4-carboxylic acid] | > 32 |  |  |  |  |  |  |  |  |  |  |  |  |  |  | activity against S. aureus Col [2]: lacking activity; activity against Enterococci [3]: potent activity |
| O=C(COc1ccccc1)N[C@@H]1C(=O)N2C(C(=O)O)=C(Sc3ccnn3-c3ccccc3)CS[C@H]12 [Cmpd 112, (7R)-7-[(phenyloxyacetyl)amino]-3-(1-N-phenylpyrazol-5-ylthio)-3-cephem-4-carboxylic acid] | 4 (≈ 7.87 µM) | ≤ 0.06 | ≤ 0.06 |  |  |  |  |  |  |  |  |  |  |  |  |  |
| O=C(CS/C=C\Cl)N[C@@H]1C(=O)N2C(C(=O)O)=C(Sc3ccnn3-c3ccccc3)CS[C@H]12 [Cmpd 131, (7R)-7-[((Z-2-Chlorovinyl)thioacetyl)amino]-3-(1-N-phenylpyrazol-5-ylthio)-3-cephem-4-carboxylic acid] | 1 (≈ 1.96 µM) | < 0.06 |  | 9/10 | 7/10 | 4/10 |  |  |  |  |  |  |  |  |  | Mortality ([4]; dose 5 mg/kg): 0/10; Mortality ([4]; dose 10 mg/kg): 0/10 |
| N=C(N)SCc1ccc(SC2=C(C(=O)O)N3C(=O)[C@@H](NC(=O)Cc4ccccc4)[C@H]3SC2)c(CSC(=N)N)c1 [Cmpd 138, (7R)-7-[(phenylacetyl)amino]-3-[2,4-(bis) (isothiouroniummethyl)phenylthio]-3-cephem-4-carboxylate, trifluoroacetic acid salt] | 2 | 0.125 | ≤ 0.06 |  |  |  | 0.075 | 0/10 | 0/10 | > 32 | 8 | 32 | 8 | 0.5 | 0.5 | Mortality ([4]; dose 0.0195 mg/kg): 9/10; Mortality ([4]; dose 0.0391 mg/kg): 10/10; Mortality ([4]; dose 0.0781 mg/kg): 6/10 |
| N=C(N)SCc1ccc(SC2=C(C(=O)O)N3C(=O)[C@@H](NC(=O)/C(=N\O)c4csc(N)n4)[C@H]3SC2)c(CSC(=N)N)c1 [Cmpd 139, (7R)-7-[(Z)-2-(Aminothiazol-4-yl)-2-(hydroxyimino)acetamido]-3-[2,4-(bis)isothiouroniummethylphenylthio]-3-cephem-4-carboxylate, trifluoroacetic acid salt] | 4 | 0.25 | 0.25 | 4/10 | 0/10 | 1/10 | 0.28 | 4/10 | 8/10 | > 32 | 4 | 1 | 4 | 0.5 | 0.125 |  |
| CSCC(=O)N[C@@H]1C(=O)N2C(C(=O)O)=C(Sc3ccc(CSC(=N)N)cc3CSC(=N)N)CS[C@H]12 [Cmpd 140, (7R)-7-[(methylthioacetyl)amino]-3-[2,4-(bis)isothiouroniummethylphenylthio]-3-cephem-4-carboxylate, trifluoroacetic acid salt] | 2 | 0.125 | ≤ 0.06 | 2/10 | 0/10 | 0/10 | < 0.156 | 0/10 | 1/10 | > 32 | 8 | > 32 | 8 | 1 | 1 |  |
| N=C(N)NCCSCC(=O)N[C@@H]1C(=O)N2C(C(=O)O)=C(Sc3ccc(CSC(=N)N)cc3CSC(=N)N)CS[C@H]12 [Cmpd 141, (7R)-7-[((2-guanidinoethylthio)acetyl)amino]-3-[2,4-(bis)isothiouroniummethylphenylthio]-3-cephem-4-carboxylate, trifluoroacetic acid salt] | 2 | 0.25 | 0.25 | 2/10 | 1/10 | 1/10 | < 0.156 | 3/10 | 3/10 | > 32 | 8 | 4 | 8 | 0.5 | 1 |  |
| N=C(N)SCCSCC(=O)N[C@@H]1C(=O)N2C(C(=O)O)=C(Sc3ccc(CSC(=N)N)cc3CSC(=N)N)CS[C@H]12 [Cmpd 142, (7R)-7-[((2-(isothiouronium)ethylthio)acetyl)amino]-3-[2,4-(bis)isothiouroniummethylphenylthio]-3-cephem-4-carboxylate, trifluoroacetic acid salt] | 4 | 0.25 | 0.25 | 0/10 | 0/10 | 0/10 | < 0.156 | 3/10 | 1/10 | > 32 | 8 |  | 8 | 0.5 | 1 |  |
| N=C(N)SCCSCC(=O)N[C@@H]1C(=O)N2C(C(=O)O)=C(Sc3ccccc3CSC(=N)N)CS[C@H]12 [Cmpd 143, (7R)-7-[((2-(isothiouronium)ethylthio)acetyl)amino]-3-[2-(isothiouroniummethyl)phenylthio]-3-cephem-4-carboxylate, trifluoroacetic acid salt] | 8 |  | 0.125 | 2/10 |  |  | 0.34 | 9/10 | 6/10 | > 32 | 16 | 8 | 16 | 0.5 | 0.5 | Mortality ([4]; dose 0.0391 mg/kg): 9/10; Mortality ([4]; dose 0.0781 mg/kg): 8/10; MIC (S. aureus ATCC 29213): 0.125 µg/mL |
